The text below walks through data of paper PMC11170107, “Development of a new hazard scoring system in primary neuronal cell cultures for drug-induced acute neuronal toxicity identification in early drug discovery” (Frontiers in Pharmacology, 2024).

System in one data set: not given
Experiment: not given
The note with it: ref National library of medicine, Daylimed; cited from earlier work.
Regarding `O=C1CN=C(c2ccccc2Cl)c2cc([N+](=O)[O-])ccc2N1` [Clonazepam], the “FDA prescription information at therapeutic dose (Convulsion/ Seizure/Lower the seizure threshold/withdrawal)” value was “on label”.
As for `CN1C[C@H](C(=O)N[C@]2(C)O[C@@]3(O)[C@@H]4CCCN4C(=O)[C@H](Cc4ccccc4)N3C2=O)C=C2c3cccc4[nH]cc(c34)C[C@H]21` [Ergotamine], the “FDA prescription information at therapeutic dose (Convulsion/ Seizure/Lower the seizure threshold/withdrawal)” value is reported as “not found on label”.
Regarding `NCC1(CC(=O)O)CCCCC1` [Gabapentin], the “FDA prescription information at therapeutic dose (Convulsion/ Seizure/Lower the seizure threshold/withdrawal)” value is listed as “On label”.
On to `CN1CCC[C@H]1c1cccnc1` [Nicotine], for which the “FDA prescription information at therapeutic dose (Convulsion/ Seizure/Lower the seizure threshold/withdrawal)” value is recorded as “not found on label”.
For the compound `CCCC(C)C1(CC)C(=O)NC(=O)NC1=O` (centres unmarked) [Pentobarbital], the “FDA prescription information at therapeutic dose (Convulsion/ Seizure/Lower the seizure threshold/withdrawal)” value is given as “not found on label”.

System in the next data set: not given
Experiment: not given
The conditions noted are these: Supplementary Table S1; cited from earlier work.
Take `Nc1ccncc1` [4-Aminopyridine]: the “Free Cmax highest” value was 240 nM.
Regarding `O=C1CN=C(c2ccccc2Cl)c2cc([N+](=O)[O-])ccc2N1` [Clonazepam], the “Free Cmax highest” value was 12 nM.
Take `CN1C[C@H](C(=O)N[C@]2(C)O[C@@]3(O)[C@@H]4CCCN4C(=O)[C@H](Cc4ccccc4)N3C2=O)C=C2c3cccc4[nH]cc(c34)C[C@H]21` [Ergotamine]: the “Free Cmax highest” value was 0.4 nM.
For the compound `NCC1(CC(=O)O)CCCCC1` [Gabapentin], the “Free Cmax highest” value was 2080 nM.
Regarding `CN1CCC[C@H]1c1cccnc1` [Nicotine], the “Free Cmax highest” value is 180 nM.
Regarding `CCCC(C)C1(CC)C(=O)NC(=O)NC1=O` (centres unmarked) [Pentobarbital], the “Free Cmax highest” value was 5100 nM.

The next data set deals with rat primary cortical neurons. The data set can be described thus: MEA hazard scoring in rat primary cortical neuronal cultures. The conditions noted are these: rat primary neurons on MEA.
Method: At DIV28, spontaneous neuronal activity obtained for 30 min in culture solution was defined as the baseline.
Data analysis was captured using AxIs suite software (Axion Biosystems Inc., version 3.6.2) and further analyzed using GraphPad Prism (version 9.00; GraphPad Software Inc., San Diego, CA). […] An active well should have more than 40% active electrodes. All wells below this threshold were discarded upon these quality criteria. For the downstream statistical analysis, the data on each MEA parameter was first expressed as the ratio of exposed wells (percentage change between baseline and the treatment) and then normalized to the average of the control within the same plate. i.e., Baseline corrected ratios of n= 7 or eight wells were averaged per condition. Each well of the MEA served as its own control, and the changes in the electrical activity elicited by the treatments were expressed as a percentage of that control activity and normalized to the wells treated with the vehicle control dimethyl sulfoxide (DMSO). […] Differences were determined using the non-parametric Wilcoxon Mann Whitney test; p-values below 0.05 were considered significant. Data are expressed as means ± S.E.M.
Thereafter, based on the effects of vehicles and positive controls, we determined the cut-off points between the different effect zones according to the key parameters selected as described in the previous subsection. The zones were defined as follows. The “no effect” zone reflects parameter changes that are most likely within vehicle variability. The “mild” and “strong” zones are differentiated bidirectionally showing mild and strong effects.
The respective hazard class was determined by a cumulative scoring of individual parameters using a scoring matrix, which was based on the following three fundamental components: (1) selection of the six key relevant parameters, (2) defining the cutoffs for the level of effect, and (3) defining weighted points per parameter for the level of hazard potential. The scoring matrix concluded with the addition of a weighted point algorithm to discriminate distinct degrees of neuronal hazard. […] The weighted points were defined on the importance of a parameter (and the direction of effect), as well as the identification of an expected hazard for different pharmacological modes of action. The overall hazard score is derived from the sum of all weighted parameters, which could be converted into a specific hazard label. The weighted points and total score range associated with the various hazard labels were optimized using an iterative process.
For `O=C1CN=C(c2ccccc2Cl)c2cc([N+](=O)[O-])ccc2N1` [Clonazepam], the “hazard classification in the hazard scoring system” value was “hazards”.

The data set is the same for the next values; noted with them: rodent cortical neurons in vitro.
For the compound `Nc1ccncc1` [4-Aminopyridine], the “firing rate (weighted mean firing rate) in MEA recordings” value is “largely increased”.

System in the next data set: not given
Experiment: not given
The note with it: WHO adverse drug reactions VigiBase; ref Kumlien and Lundberg, 2010; cited from earlier work.
Turning to `Nc1ccncc1` [4-Aminopyridine], the “Percentage seizures of total number of ADRs” value (shortened to “Percentage seizures”) was 2.353%.
Regarding `O=C1CN=C(c2ccccc2Cl)c2cc([N+](=O)[O-])ccc2N1` [Clonazepam], the “Percentage seizures” value is listed as 2.831%.
In the case of `CN1C[C@H](C(=O)N[C@]2(C)O[C@@]3(O)[C@@H]4CCCN4C(=O)[C@H](Cc4ccccc4)N3C2=O)C=C2c3cccc4[nH]cc(c34)C[C@H]21` [Ergotamine], the “Percentage seizures” value is 0.8818%.
Take `NCC1(CC(=O)O)CCCCC1` [Gabapentin]: the “Percentage seizures” value is on record as 1.766%.
Consider `CCCC(C)C1(CC)C(=O)NC(=O)NC1=O` (centres unmarked) [Pentobarbital], for which the “Percentage seizures” value is 3.3557%.

The next data set has as its system Male rats (Sprague-Dawley). The data set is described as follows: EEG recordings and behavioral seizures in freely moving rats. Type of data set: in vivo. The note with it: freely moving rat, 1 mg/kg, iv. The source says:
Electroencephalogram (EEG) rodent studies and assessment of seizures: Male rats (n = 8) (Sprague-Dawley), 400-800 g, were surgically implanted with Stellar Implantable Transmitter (E−430001-IMP-77, Type PBT-M-C Pressure, Biopotential, Temp; TSE systems USA) and microchipped with RFID (Bio13. Therm.03V1 PLS, Biomark Inc, USA) transponder for measurements of activity and body temperature. EEG was used to confirm that convulsive activity is linked to seizurogenic activity measured on the EEG.
Regarding `Nc1ccncc1` [4-Aminopyridine], the EEG spikes entry is reported as “significantly increased”.

The same data set, now with this note: freely moving rat, 3 mg/kg, iv.
In the case of `Nc1ccncc1` [4-Aminopyridine], the convulsions and seizures result was “induced convulsions and seizures”.

Another data set has as its system rat primary cortical neurons.
Experiment: not given
Settings: not given
Consider `Nc1ccncc1` [4-Aminopyridine], for which the “hazard score group in Figure 3” value was “Neuro Active to high hazard”.
The same measure, in the same setting: the entry for `O=C1CN=C(c2ccccc2Cl)c2cc([N+](=O)[O-])ccc2N1` [Clonazepam] is “Neuro Active to hazard”; for `CN1C[C@H](C(=O)N[C@]2(C)O[C@@]3(O)[C@@H]4CCCN4C(=O)[C@H](Cc4ccccc4)N3C2=O)C=C2c3cccc4[nH]cc(c34)C[C@H]21` [Ergotamine] it is “Neuro Active to high hazard”; for `NCC1(CC(=O)O)CCCCC1` [Gabapentin] it is “Neuro Active to high hazard”.
Take `CN1CCC[C@H]1c1cccnc1` [Nicotine]: the “hazard classification in the hazard scoring system” value is “non-neuroactive” and the “hazard score group in Figure 3” value is “Non-Neuro Active”.
Consider `CCCC(C)C1(CC)C(=O)NC(=O)NC1=O` (centres unmarked) [Pentobarbital], for which the “hazard score group in Figure 3” value was “Neuro Active to hazard”.

System in the next data set: not given
Experiment: not given
The note with it: established from VigiBase, SIDER, Elsevier drug information and FDA prescribing information.
For the compound `Nc1ccncc1` [4-Aminopyridine], the “Classification* (degree of seizure risk)” value is reported as “Risk”.
Still for that read-out and setting: the entry for `O=C1CN=C(c2ccccc2Cl)c2cc([N+](=O)[O-])ccc2N1` [Clonazepam] is “Risk”.
Consider `CN1C[C@H](C(=O)N[C@]2(C)O[C@@]3(O)[C@@H]4CCCN4C(=O)[C@H](Cc4ccccc4)N3C2=O)C=C2c3cccc4[nH]cc(c34)C[C@H]21` [Ergotamine], for which the “Classification* (degree of seizure risk)” value was “Risk”.
For the compound `NCC1(CC(=O)O)CCCCC1` [Gabapentin], the “Classification* (degree of seizure risk)” value is on record as “Risk”.
Still for that read-out and setting: the value for `CCCC(C)C1(CC)C(=O)NC(=O)NC1=O` (centres unmarked) [Pentobarbital] was “Risk”.

System in another data set: not given
Experiment: not given
The conditions noted are these: seizure ADR frequency in SIDER; ref Campillos et al., 2008; Kuhn et al., 2010; cited from earlier work.
Consider `Nc1ccncc1` [4-Aminopyridine], for which the “SIDER ADR on-/off-label” value is given as “no frequency information”.
`O=C1CN=C(c2ccccc2Cl)c2cc([N+](=O)[O-])ccc2N1` [Clonazepam]: the “SIDER ADR on-/off-label” value is on record as “not found on label”.
On to `CN1C[C@H](C(=O)N[C@]2(C)O[C@@]3(O)[C@@H]4CCCN4C(=O)[C@H](Cc4ccccc4)N3C2=O)C=C2c3cccc4[nH]cc(c34)C[C@H]21` [Ergotamine], for which the “SIDER ADR on-/off-label” value is on record as “not found on label”.
Take `NCC1(CC(=O)O)CCCCC1` [Gabapentin]: the “SIDER ADR on-/off-label” value is “postmarketing”.
Turning to `CN1CCC[C@H]1c1cccnc1` [Nicotine], the “SIDER ADR on-/off-label” value is reported as “not found on label”.
Regarding `CCCC(C)C1(CC)C(=O)NC(=O)NC1=O` (centres unmarked) [Pentobarbital], the “SIDER ADR on-/off-label” value was “not found on label”.
